# Measured values from PMC7725785, “TRIB3 promotes MYC-associated lymphoma development through suppression of UBE3B-mediated MYC degradation” (Nature Communications, 2020).
# Where a SMILES comes first, the peptide text is derived from it. The star is where a group is joined. Cbz = O=C(OCc1ccccc1)*
# Legend:
# MYC ubiquitination = test: UBE3B-mediated MYC ubiquitination in HEK 293T cells with GSK3 inhibitor; format: cell-based; conditions: GSK3 inhibitor 10 µM for 12 hr, Co-IP, result in words
# Description: HEK 293T cells were cotransfected with Myc-tagged MYC, HA-tagged or Flag-tagged ubiquitin, and other indicated plasmids. Cells were pretreated for 6 h with MG132 (Sigma Aldrich, C2211) at a concentration of 20 μM, and cell extracts were prepared using lysis buffer containing 1% TX-100 supplemented with 1 mg/ml iodoacetamide. We used a monoclonal anti-HA Affinity Gel (Bimake.com, B23302) or a ubiquitin antibody (CST, #3933S, 5 μg/IP) to purify ubiquitinylated proteins. Precipitates were analyzed by immunoblot with an anti-MYC antibody (CST, #9402 S, 1:1000).
# Suppleme n t a ry F i g ur e 4 . U B E3 B I n d uc e d MYC Ubiquitina tion a t Lys ine 4 27 . Re la te d to Fig. 3 . […]
# (d) The direct interaction of UBE3B and MYC in the purified system. […] HEK 293T cells were transfected with th e indicated mutants of MYC, and the ubiquitination of MYC was detected by Co -IP assays. […] HEK 293T cells were transfected with the indicated mutants of MYC, and the ubiquitination of MYC was detected by Co-IP assays. […] HEK 293T cells were transfected with the indicated mutants of MYC, and the degradation of MYC was detected by western blotting. […]
# Raji cells were transfected with the indicated siRNAs and plasmids, and the ubiquitination of MYC was detected by Co-IP assays. […] Th e MY C protein was detected by Western blot analysis with GAPDH as a loading control. […] The MYC ubiquitination was detected by Co-IP assays . […]
# [1] = system: MYC protein in Raji cells; test: MYC degradation in control or TRIB3-deleted Raji cells with CHX or CHX plus MG132; format: cell-based, human; conditions: result in words
# Description: Co-IP experiments were performed as described previously. Briefly, cells were collected and lysed for 30 min on ice. Soluble lysates were incubated with the indicated antibodies at 4 °C overnight, followed by incubation with Protein A/G Plus-Agarose (Santa Cruz Biotechnology, TX, USA) at 4 °C for 2 h. Soluble lysates were incubated with the indicated Anti-Myc magnetic beads (Bimake.com, B26302), Anti-Flag Affinity Gel (Bimake.com, B23102) or Anti-HA Affinity Gel (Bimake.com, B23302) at 4 °C overnight. Immunocomplexes were separated from the beads and then boiled for 10 min. The precipitated proteins were subjected to SDS-PAGE and blotted with specific antibodies. For immunoblotting assays, proteins were extracted from cells, spleens, or lymphoma tissues using RIPA buffer (Cell Signaling Technology, MA, USA). A BCA Protein Assay Kit was used to determine protein concentrations. Protein extracts were separated by SDS-PAGE, transferred onto PVDF membranes, and subjected to immunoblot analysis. Western blot images were captured by a Tanon 5200 chemiluminescent imaging system (Tanon, Shanghai, […]). Human lymphoma and benign LN paraffin tissue microarrays were purchased from US Biomax (LM482a).
# [2] = system: Myc^EμCre^ERT2Trib3^F/+ mice; test: Survival of Myc^EμCre^ERT2Trib3^F/+ mice treated with vehicle or tamoxifen (induced Trib3 deletion); format: in vivo, mouse
# Description: NOD-scid IL2Rg^null (NSG) mice (4–6 weeks old, male) were purchased from the Nanjing Biomedical Research Institute of Nanjing University (Nanjing, China). Trib3-knockout (Trib3^loxP/loxP, Trib3^F/F) mice (5–6 weeks old, male) were generated as described in our previous study (Li et al.[18]). Cre^ERT2 (B6. Cg-Tg(CAG-cre/Esr1*)5Amc/J) mice (5–6 weeks old, 1 male and 2 females) (The Jackson Laboratory, 004682) were obtained from The Jackson Laboratory (CA, USA). When Cre^ERT2 transgenic mice bred with mice containing loxP-flanked sequences, tamoxifen-inducible Cre-mediated recombination results in deletion of the floxed sequences in widespread cells/tissues of the offspring. Cre^Lck (B6. Cg-Tg(Lck-cre)548Jxm/J) mice (5–6 weeks old, 1 male and 2 females; The Jackson Laboratory, 003802), and Cre^CD19 (B6.129P2(C)-Cd19tm1(cre)Cgn/J) mice (5–6 weeks old, 1 male and 2 females; The Jackson Laboratory, 006785) were obtained from the Shanghai Research Center for Model Organisms (Shanghai, China). B6.129P2-Lyz2tm1(cre)/Nju (LysM-Cre) mice(5–6 weeks old, 1 male and 2 females; N000056) were obtained from Model Animal Resource Information Platform. […] Deletion of Trib3 was corroborated by quantitative PCR and immunoblot analysis. […]
# MAX and MYC = test: SPR kinetic interaction of MAX and MYC proteins with indicated peptides (CM1-CM4); format: binding; conditions: result in words
# Description: (§1) Binding kinetics between MYC and UBE3B, TRIB3 and the indicated α helical peptides, MAX and the indicated α helical peptides, or MYC and MAX were analyzed using a BIAcore T200 instrument (GE Healthcare, CA, USA) as described previously. Briefly, binding reactions were performed in HBS-EP buffer (GE Healthcare) at pH 7.4. TRIB3/MYC/MAX protein was coated on the flow cell of a CM5 sensor chip by direct immobilization. Another flow cell, not coated with an immobilized protein, was used to evaluate nonspecific binding. The binding analyses were performed at a flow rate of 25 μl/min at 25 °C. A total of 0–200 nM peptide or 0–500 nM TRIB3 protein was passed over the surface of the sensor chip. The association rate constant (Ka) and the dissociation rate constant (Kd) were calculated according to the BIA evaluation software. The dissociation constant (KD) was determined by Kd/Ka.
# MAX protein = test: SPR kinetic interaction of α-helical peptides (CM1-CM4) with MAX; format: binding; conditions: result in words
# Description: as §1
# TRIB3 protein = molecular target: T1, TRIB3 protein (Homo sapiens, UniProt Q96RU7); test: SPR kinetic interaction of α-helical peptides (CM1-CM4) with TRIB3; format: binding; conditions: result in words
# T1 construct: GST; purchased Sinobiological Inc. 10731-H09B
# T1 sequence (Q96RU7 1-358): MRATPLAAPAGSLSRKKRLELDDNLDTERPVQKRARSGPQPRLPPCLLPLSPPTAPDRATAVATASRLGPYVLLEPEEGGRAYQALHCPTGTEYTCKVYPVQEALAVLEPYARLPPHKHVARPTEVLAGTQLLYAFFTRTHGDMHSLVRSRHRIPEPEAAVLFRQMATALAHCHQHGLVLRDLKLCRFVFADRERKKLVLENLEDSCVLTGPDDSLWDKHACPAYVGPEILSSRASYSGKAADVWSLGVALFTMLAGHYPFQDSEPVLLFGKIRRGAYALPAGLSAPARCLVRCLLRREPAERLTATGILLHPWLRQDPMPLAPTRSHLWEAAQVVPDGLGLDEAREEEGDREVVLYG
# Description: as §1
# TRIB3 and MYC = test: SPR kinetic interaction of TRIB3 and MYC proteins with or without CM4; format: binding; conditions: in vitro, result in words
# Description: as §1
effect on the binding of MYC and MAX (MAX and MYC),Molecule,ability to bind MAX (MAX protein),binding affinity for TRIB3 (TRIB3 protein),also measured
–,Cc1c[nH]c(-c2cnc(NCCNc3ccc(C#N)cn3)nc2-c2ccc(Cl)cc2Cl)n1 [CT99021],–,–,UBE3B-mediated MYC ubiquitination (MYC ubiquitination): decreased
–,CC(C)C[C@@H](C=O)NC(=O)[C@H](CC(C)C)NC(=O)[C@H](CC(C)C)NC(=O)OCc1ccccc1 [MG132] (Cbz-Leu-Leu-Leu-aldehyde),–,–,effect on the shortened MYC half-life induced by TRIB3 knockdown [1]: reversed
–,"CC/C(=C(\c1ccccc1)c1ccc(OCCN(C)C)cc1)c1ccccc1 [Tamoxifen, tamoxifen]",–,–,"survival of lymphoma mice ([2]; tamoxifen 250 mg/kg i.p. (induces Trib3 deletion), result in words): none of the tamoxifen-treated Myc^Eμ Cre^ERT2Trib3^F/+ mice died within 180 days; Survival status at day 180 (0: alive, 1: dead) ([2]; tamoxifen 250 mg/kg, status of individual mice at Day 180, Fig 1k source data): 0"
decreased the binding of MYC and MAX,"ERQRRNELKRSFFALR [CM1, α-helical peptide derived from C terminus (HLH domain) of MYC]",showed a high ability to bind MAX,only CM4 displayed a high binding affinity,–
not,"KVVILKKATAYILSV [CM2, α-helical peptide derived from C terminus of MYC]",not,only CM4 displayed a high binding affinity,–
–,"LRKERQRLEKQLHK [scramble peptide of CM4, reference compound]",–,–,effect on the binding affinity of TRIB3 and MYC (TRIB3 and MYC): not
not,"QAEEQKLISEEDLLR [CM3, α-helical peptide derived from C terminus of MYC]",not,only CM4 displayed a high binding affinity,–
